Laboratory results from patent publication US7507792B2, “MDA-7 proteins and methods of use thereof” (The Trustees of Columbia University In The City of New York, priority 1993, dated 2009).
Entries after “also recorded” stand apart in the source; their conditions may differ.

What was measured:
Format in all cases: cell-based, human
mda-9 = mda-9 expression (Northern blotting); settings: H0-1
Procedure: (§1) The mass excision of the library was performed using ExAssist helper phage as described above. The SOLR strain of Escherichia coli and cDNA phagemids were mixed at 37° C. for 15 min and plated onto LB plates containing ampicillin and IPTG/X-gal. White colonies were chosen at random, isolated and grown in LB medium. Plasmid minireps and restriction enzyme digestions were performed to confirm the presence of inserts. The inserts were isolated and used as robes for Northern blotting analysis (5,25). […] Radiolabeled probes were generated by random oligonucleotide priming (25). Prehybridization, hybridization, posthybridization washes, and autoradiography were performed as described (5,18,25).

mda-5 = mda-5 expression (Northern blotting); settings: H0-1
Procedure: as §1

H0-1 cells = assay: Northern blotting of H0-1 RNA probed with mda cDNA clones; settings: 24 hours
Procedure: Ten micrograms of total cellular RNA were separated on a 1% agarose gel, transferred to nylon membranes and then hybridized individually with radioactive probes prepared using appropriate inserts from the cDNA clones.
as §1

HL-60 cells = assay: OKM1 reactivity (immunofluorescence); settings: TPA 3 nM, RA 1 μM or Vit D3 400 nM, percent OKM1 positive cells
Procedure: (§2) HL-60 cells were originally provided by Dr. R. C. Gallo (National Cancer Institute, Bethesda, Md.) (Collins et al., 1978; Huberman & Callaham, 1979). HL-60 cells designated HL-525 were derived by cloning HL-60 cells after subculturing 102 times in the presence of increasing concentrations (up to 3 μM) of TPA at 5- to 8-day intervals (Homma et al., 1986; Mitchell et al., 1986). […] Prior to the experiments described in this study, the HL-525 cells were subcultured more than 20 times in the absence of TPA. Cells were grown in 100-mm tissue culture dishes in RPMI 1640 medium supplemented with 20% fetal bovine serum, penicillin (100 units/ml) and streptomycin (100 μg/ml) (Grand Island Biological Co., NY) at 37° C. in an atmosphere of 5% CO2 in air in a humidified incubator. The 1,25-(OH)2D3(Vit D3) and TPA were dissolved in a final concentration of 0.01% DMSO, and all-trans retinoic acid (RA) was dissolved in 0.1% DMSO in culture medium. […] Control cultures were treated with DMSO at a final concentration of 0.1% in culture medium. For experiments designed to test the effect of DMSO on HL-60 and HL-525 cells, DMSO was added to tissue culture medium at a final concentration of 1%. Stock solutions of CHX (10 mg/ml) were prepared in culture medium. CHX was added at a final concentration of 10 μg/ml. To examine a requirement for protein synthesis on mda-6 gene expression, HL-60 or HL-525 cells were seeded into 150 mm Petri dishes (5×10^5 cells/ml) in 30 ml of medium. CHX was added to a final concentration of 10 μg/ml 15 min prior to the addition of TPA to 3 nM. Cells were harvested at various times after addition of TPA for subsequent RNA isolation and analysis.
(§3) Cell counts were determined by hemocytometer chamber counting. Immunofluorescence tests for reactivity with the OKM1 antibody (Ortho Pharmaceutical Corp., Raritan, N.J.) were performed as previously described (Murao et al., 1983).

HL-525 cells = assay: OKM1 reactivity (immunofluorescence); settings: TPA 3 nM, RA 1 μM or Vit D3 400 nM, percent OKM1 positive cells
Procedure: as §2, §3

[1] = system: MDA-6 (WAF1/CIP1/SDI1) protein; assay: Immunoprecipitation of MDA-6 (WAF1/CIP1/SDI1) protein in HL-60 cells; settings: TPA, DMSO (1%) or RA (1 μM), 12, 24, 48 and 72 h tested
Procedure: Immunoprecipitation analyses were performed as described previously (Duigou et al., 1991; Su et al. 1993). Logarithmically growing HL-60 cells were either untreated or treated for 12, 24, 48 or 72 h with TPA ([…]), RA (1 μM) or DMSO (1%) in 10-cm plates. Cultures were starved of methionine for 1 h at 37° C. in methionine-free medium, cells were concentrated by pelleting and labeled for 4 h at 37° C. in 1 ml of the same medium with 100 μCi of [^35S] (NEN; Express ^35S). After labeling, the cells were washed twice with ice-cold phosphate-buffered saline and lysed for 1 h on ice by the addition of RIPC (20 mM Tris-base, pH 7.5, 500 mM NaCl, 0.05% Nonidet P-40, 100 μg/ml phenylmethylsulfonyl fluoride and 0.02% sodium azide). The lysate was clarified by centrifugation in an Eppendorf microfuge at 10,000×g for 10 min at 4° C. Samples containing 4×10^6 counts were incubated with 2 μg of WAF1/CIP1 (C-19) (Santa Cruz Biotechnology) (or MDA-6 peptide-derived) rabbit polyclonal IgG or actin monoclonal antibody (Oncogene Sciences) with rocking at 4° C. for 24 h. The next day, 30 μl (packed volume) of protein G-agarose (Oncogene Sciences) was added to each tube, and incubation with rocking at 4° C. continued for another hour. The protein G pellets were then washed five times with 1 ml of ice-cold RIPC:phosphate-buffered saline (1:1, v/v). Thirty μl of sodium dodecyl sulfate-polyacrylamide gel electrophoresis buffer were added to the pellets, and the sample was heated at 87° C. for 3 min. The samples were loaded onto an 10% polyacrylamide gel and run overnight at 40 V. The gel contained Rainbow protein markers (Amersham) for sizing. Gels were fixed with 10% acetic acid plus 10% methanol for 30 min, incubated in DMSO for 30 min, incubated with 10% 2,5-diphenyloxazole in DMSO for 30 min, washed three times with cold water (10 min each), dried and exposed to film.

[2] = 24 hours, doses of FIG. 19, phenyl butyrate 24 hours, 4 days or 7 days
[3] = 96 hours, doses of FIG. 15 legend

For `C=C(C)[C@@]12O[C@@]3(c4ccccc4)O[C@@H]1[C@@H]1[C@@H]4O[C@]4(CO)[C@@H](O)[C@]4(O)C(=O)C(C)=C[C@H]4[C@@]1(O3)[C@H](C)[C@H]2OC(=O)/C=C/C=C/c1ccccc1` [MEZ, mezerein], the mda-9 expression (mda-9; [2]) was “Increased expression”, the mda-9 expression (mda-9; [3]) was “No change in mda-9 expression” and the mda-5 expression (mda-5; [2]) was “No change in expression”. For the same compound, the mda-5 expression (mda-5; [3]) was “No change in expression” and the mda-3 expression (H0-1 cells) was “induced; also recorded: Increased expression”.

In the case of `CC1=C(/C=C/C(C)=C/C=C/C(C)=C/C(=O)O)C(C)(C)CCC1` [RA, trans-retinoic acid], the “OKM1 reactivity, Days of induction 2” value (HL-60 cells) is reported as 49%, the “OKM1 reactivity, Days of induction 4” value (HL-60 cells) is reported as 76% and the “OKM1 reactivity, Days of induction 6” value (HL-60 cells) is reported as 77%. For the same compound, the “OKM1 reactivity, Days of induction 4” value (HL-525 cells) was 10%, the “OKM1 reactivity, Days of induction 6” value (HL-525 cells) was 13% and the mda-9 expression (mda-9; [3]) was “No change in mda-9 expression”. The mda-5 expression (mda-5; [3]) was “No change in expression” and the “time of treatment at which MDA-6 protein is detected” value [1] was 12 h.

In the case of `CCCCCCCCCCCCCC(=O)O[C@@H]1[C@@H](C)[C@@]2(O)[C@@H](C=C(CO)C[C@]3(O)C(=O)C(C)=C[C@@H]23)[C@@H]2C(C)(C)[C@]12OC(C)=O` [TPA, 12-O-tetradecanoyl-phorbol-13-acetate], the “OKM1 reactivity, Days of induction 2” value (HL-60 cells) is reported as 55%, the “OKM1 reactivity, Days of induction 4” value (HL-60 cells) is reported as 81% and the “OKM1 reactivity, Days of induction 6” value (HL-60 cells) is reported as 95%. The “OKM1 reactivity, Days of induction 4” value (HL-525 cells) was 8%, the “OKM1 reactivity, Days of induction 6” value (HL-525 cells) was 4% and the “time of treatment at which MDA-6 protein is detected” value [1] was 12 h.
